Key:
Test in all cases: relative viability (nuclei count vs DMSO), 5 days (fraction); higher = more cells survive
Trametinib + Dasatinib = compound: CC(=O)Nc1cccc(-n2c(=O)n(C3CC3)c(=O)c3c(Nc4ccc(I)cc4F)n(C)c(=O)c(C)c32)c1 [Trametinib] + Cc1nc(Nc2ncc(C(=O)Nc3c(C)cccc3Cl)s2)cc(N2CCN(CCO)CC2)n1 [Dasatinib] (partner 0.075 µM)
How it was run: (§1)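 Five library-drug doses in √10 steps were combined with a fixed anchor-drug dose, or a single drug was given alone, by pin tool to lung cancer cell lines in 1536-well plates the day after seeding. Nuclei were stained and counted after 5 days. Relative viability is the nuclei count in treated wells over that in vehicle wells, taken as the median of duplicate plates.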

[1] = compound: CN1C=C(C2=CC=CC=C21)/C=C\3/C4=C(C=CC=N4)NC3=O + CC(=O)c1c(C)c2cnc(Nc3ccc(N4CCNCC4)cn3)nc2n(C2CCCC2)c1=O [Palbociclib] (partner 0.5 µM)
How it was run: as §1

[2] = compound: CN1C=C(C2=CC=CC=C21)/C=C\3/C4=C(C=CC=N4)NC3=O + CC1(C)CCC(c2ccc(Cl)cc2)=C(CN2CCN(c3ccc(C(=O)NS(=O)(=O)c4ccc(N[C@H](CCN5CCOCC5)CSc5ccccc5)c(S(=O)(=O)C(F)(F)F)c4)cc3)CC2)C1 [Navitoclax] (partner 0.5 µM)
How it was run: as §1

[3] = compound: CN1C=C(C2=CC=CC=C21)/C=C\3/C4=C(C=CC=N4)NC3=O + COc1cc2c(Oc3ccc(NC(=O)C4(C(=O)Nc5ccc(F)cc5)CC4)cc3F)ccnc2cc1OCCCN1CCOCC1 [Foretinib] (partner 0.25 µM)
How it was run: as §1

Cell Line	relative viability (Trametinib + Dasatinib; first compound 0.0025 µM)	relative viability (Trametinib + Dasatinib; first compound 0.007906 µM)	relative viability (Trametinib + Dasatinib; first compound 0.025 µM)	relative viability (Trametinib + Dasatinib; first compound 0.07906 µM)	relative viability (Trametinib + Dasatinib; first compound 0.25 µM)	relative viability ([1]; first compound 0.02 µM)	relative viability ([1]; first compound 0.06325 µM)	relative viability ([1]; first compound 0.2 µM)	relative viability ([1]; first compound 0.6325 µM)	relative viability ([1]; first compound 2 µM)	relative viability ([2]; first compound 0.02 µM)	relative viability ([2]; first compound 0.06325 µM)	relative viability ([2]; first compound 0.2 µM)	relative viability ([2]; first compound 0.6325 µM)	relative viability ([2]; first compound 2 µM)	relative viability ([3]; first compound 0.02 µM)	relative viability ([3]; first compound 0.06325 µM)	relative viability ([3]; first compound 0.2 µM)	relative viability ([3]; first compound 0.6325 µM)	relative viability ([3]; first compound 2 µM)
LOU-NH91	0.528	0.498	0.468	0.426	0.296	0.427	0.524	0.512	0.506	0.51	0.555	0.603	0.596	0.602	0.678	0.904	0.915	0.835	0.925	0.9
NCI-H2009	0.203	0.169	0.143	0.168	0.157	0.189	0.198	0.202	0.198	0.201	1.11	1.12	1.2	1.24	1.24	1.22	1.19	1.19	1.24	1.24
NCI-H2126	0.452	0.44	0.395	0.412	0.445	0.325	0.31	0.348	0.319	0.326	0.789	0.824	0.833	0.859	0.8	1.13	1.12	1.22	0.867	1.11
ChaGo-K-1	0.586	0.605	0.567	0.475	0.48	0.922	0.936	0.853	0.89	0.909	0.816	0.939		0.902	0.801	0.921	0.911	0.828	0.861	0.918
NCI-H1437	0.374	0.207	0.162	0.118	0.217	0.344	0.34	0.292	0.32	0.318	1.08	1.08	1.18	1.18	1.19	1.34	1.22	1.34	1.31	1.3
SK-LU-1	0.192	0.183	0.148	0.15	0.159	0.282	0.367	0.369	0.342	0.399	0.482	0.812	0.802	1	1.23	0.596	0.705	0.869	0.713	0.992
NCI-H838	0.251	0.322	0.214	0.27	0.249	0.208	0.174	0.214	0.199	0.18	0.941	1.04	1.05	1.04	1.1	0.778	0.853	1.03	0.894	0.92
NCI-H1755	0.409	0.433	0.492	0.427	0.322	0.434	0.463	0.431	0.433	0.427	0.836	1	0.98	0.909	0.885	0.813	0.83	0.899	0.838	0.833
NCI-H2228	0.44	0.36	0.348	0.237	0.143	0.744	0.572	0.394	0.769	0.906	1.22	0.796		0.67	0.812	0.95	0.764			0.823
NCI-H1915	0.273	0.203	0.196	0.109	0.0747	0.489	0.511	0.533	0.598	0.721	0.823	0.8	0.805	0.772	0.801	1.09	1.15	1.14	1.18	1.18
NCI-H2347	0.234	0.16	0.162	0.172	0.149	0.418	0.41	0.398	0.395	0.416	0.826	0.859	0.743	0.764	0.834	1.13	0.76	0.988	0.707	0.748
HARA	0.225	0.275	0.367	0.18	0.185	0.257	0.297	0.192	0.257	0.227	1.09	1.15	1.04	1.17	1.17	0.94	0.68		0.818	0.848
NCI-H2085	0.215	0.185	0.233	0.213	0.222	0.452	0.473	0.508	0.471	0.461	1.04	1.15	1.19	1.22	1.18	1.1	0.843	0.998	1.02	1.02
NCI-H727	0.31	0.212	0.347	0.196	0.244	0.63	0.575	0.653	0.652	0.623	0.396	0.349	0.385	0.372	0.4	0.7	0.664	0.878	0.817	0.665
NCI-H1993	0.51	0.521	0.505	0.521	0.551	0.606	0.594	0.656	0.455	1.19	0.726	0.768	0.894	0.682	0.856	0.665	0.739	0.72	0.788	0.688
EMC-BAC-2	0.352	0.407	0.419	0.443	0.365	0.471	0.513	0.504	0.521	0.535	0.924	1.12	1.25	1.13	1.35	1.04	0.996	1.01	1.06	1.08

Cell Line	relative viability (Trametinib + Dasatinib; first compound 0.0025 µM)	relative viability (Trametinib + Dasatinib; first compound 0.007906 µM)	relative viability (Trametinib + Dasatinib; first compound 0.025 µM)	relative viability (Trametinib + Dasatinib; first compound 0.07906 µM)	relative viability (Trametinib + Dasatinib; first compound 0.25 µM)	relative viability ([1]; first compound 0.02 µM)	relative viability ([1]; first compound 0.06325 µM)	relative viability ([1]; first compound 0.2 µM)	relative viability ([1]; first compound 0.6325 µM)	relative viability ([1]; first compound 2 µM)	relative viability ([2]; first compound 0.02 µM)	relative viability ([2]; first compound 0.06325 µM)	relative viability ([2]; first compound 0.2 µM)	relative viability ([2]; first compound 0.6325 µM)	relative viability ([2]; first compound 2 µM)	relative viability ([3]; first compound 0.02 µM)	relative viability ([3]; first compound 0.06325 µM)	relative viability ([3]; first compound 0.2 µM)	relative viability ([3]; first compound 0.6325 µM)	relative viability ([3]; first compound 2 µM)
NCI-H2087	0.366	0.236	0.117	0.127	0.156	0.243	0.178	0.229	0.199	0.237	1.01	0.843	1.19	1.03	1.13	1.05	1.11	1.3	1.04	1.04
NCI-H441	0.37	0.49	0.249	0.287	0.206	0.199	0.163	0.189	0.194	0.193	1.08		0.906	0.596	0.875	0.943	0.772	0.967	1.02	0.984
LXF-289	0.192	0.305	0.299	0.28	0.0945	0.589	0.593	0.626	0.656	0.775	0.962	0.908	0.97	1.01	1.01	0.943	0.957	1.04	1.05	0.977
PC-3 [JPC-3]	1.06	0.927	0.848	0.823	0.743	0.535	0.521	0.545	0.562	0.515	0.782	0.743	0.788	0.812	0.683	1.06	1.02	0.987	0.973	1.05
HCC-366	0.47	0.416	0.32	0.227	0.196	0.239	0.281	0.338	0.397	0.304	0.945	0.994	1.13	1.07	0.986	0.934	1.01	0.886	0.916	0.896
NCI-H1651	0.487	0.384	0.404	0.284	0.217	0.563	0.492	0.554	0.5	0.542	0.955	0.969	1.24	1.05	1.15	0.809	0.803	0.894	0.891	0.812
NCI-H1355	0.607	0.528	0.337	0.373	0.326	0.303	0.369	0.387	0.476	0.517	0.868	0.921	0.793	0.632	0.673	0.957	0.893	0.958	0.772	0.766
LC-2-ad	0.484	0.485	0.502	0.313	0.301	0.527	0.468	0.506	0.462	0.47	0.412	0.304	0.439	0.412	0.389	0.901	0.843	0.864	1.03	0.931
NCI-H1944	0.193	0.177	0.164	0.144	0.145	0.28	0.351		0.267	0.314	1.11	1.01		1.09	1.13	0.89	0.874		0.826	0.77
HCC-827	0.301	0.243	0.246	0.144	0.157	0.444	0.462		0.475	0.5	0.956	1.02		1.03	0.986	0.851	1.01		1.18	0.893
COR-L23	0.446	0.449	0.502	0.484	0.246	0.314	0.292	0.28	0.237	0.299	1.19	0.983	1.03	1	1.09	1.11	1.04	0.92	1.1	1.08
NCI-H3122	0.767	0.512	0.13	0.144	0.146	0.137	0.181	0.202	0.183	0.235	0.907	1.01	0.989	1.11	1.06	0.857	0.941	0.907	1.06	1.04
NCI-H2170	0.56	0.476	0.37	0.347	0.416	0.293	0.408	0.349	0.392	0.434		0.604	0.527	0.543	0.541	1.02	1.03	1.03	0.94	1.04
NCI-H1793	0.26	0.25	0.244	0.212	0.242	0.322	0.39	0.285	0.275	0.296	0.425	0.415	0.267	1.05	0.934	0.877	0.815	0.682	0.601	0.659
BEN	0.304	0.296	0.228	0.269	0.319	0.453	0.409	0.465	0.48	0.49	0.0672	0.0704	0.0656	0.0636	0.0694	0.66	0.742		0.483	0.484
NCI-H647	0.169	0.22	0.184	0.107	0.0699	0.367	0.354	0.292	0.37	0.348	0.767	0.983		0.919	0.935	1.24	1.24	1.04	1.17	1.01

From the supplement of paper PMC10307832
